Values quoted from earlier work, collected in patent publication US20090118340A1, “Method for inhibiting and/or preventing formation of cancer metastases and seconddary malignant cancers” (priority 2007, published 2009).

Test system: murine leukemia L1210
Conditions: for cytotoxicity in cultured leukemia cells: Pharmacological Reports, 2007, 59, 216-223

| Compound | cytotoxicity in cultured leukemia cells | cytotoxicity, factor lower than 3-nitro-1-methylpyridinium chloride (observed only at very high concentration) |
| --- | --- | --- |
| C[n+]1cccc(C(N)=O)c1 [MNA, 1-methylnicotinamide] | negligible | about 7000 |
| C[n+]1cccc([N+](=O)[O-])c1.[Cl-] [3-nitro-1-methylpyridinium chloride, reference compound] | highest cytotoxicity | – |
